Values after ≈ are worked out from the molar mass of the structure shown. Structures can show the parent of a compound that is named as a salt.
Experiments:
[1] = Stability study: drug content of hydrogel films after storage (HPLC), shelf life estimate; type: physicochemical; details: 0-6 months, ambient and accelerated
Method: The stability of the transdermal patch of the invention may be investigated over the course of 6 months under ambient (20.9±0.6° C./43±2.5% RH) and accelerated (40° C./75% RH) conditions. The patches are tested at time intervals of 0, 1, 2, 3 and 6 months to determine the extent of any physical, chemical and microbial changes that may have occurred.
Packaged pouches were either placed under ambient conditions (20.9±0.7° C./46.0±3.1% RH) or under accelerated conditions (40° C./75% RH), for 6 months with intermediate testing at 0, 1, 2, 3 and 6 months according to the protocol in Table 7.
To quantify the amount of drug present at each time point, hydrogel films were removed from each patch (n=3) at 0, 1, 3 and 6 months and dissolved in 5 mL 80% v/v acetonitrile for 16 hours at 30° C. in an Elmasonic S 30 H sonicating water bath (Elma Schmidbauer, Singen, Germany). After 16 hours, the samples were filtered using 0.2 μm Whatman syringeless filters vials with nylon filter media and polypropylene housing (GE Healthcare UK Ltd., Little Chalfont, Buckinghamshire, UK) and injected in triplicate to the HPLC.
Based on the drug content of the hydrogels only, a shelf life may be predicted by extrapolating the data and calculating how long it would take to reach 90% of the stated dose. […]

[2] = system: bacteria, yeasts and moulds; test: Small scale study of microbial growth in naltrexone solutions; details: for bacterial colony count: after 3 weeks incubation time; for microbial growth: summary b334
Method: This was also evidenced in a small scale study in which the microbial growth in solutions of naltrexone base and naltrexone hydrochloride were compared to a control after being stored for 25 days at 27° C. […] After 48 hours, the bacterial colony count increased to approximately 10^4 CFU/mL in the control sample and to approximately 10^2 CFU/mL in the NTX base sample. […] After 3 weeks incubation time, the bacterial colony count increased to ˜10^5 CFU/mL on the control sample, ˜10^3 CFU/mL for naltrexone base and ˜10^2 CFU/mL for naltrexone hydrochloride. Thus, a longer incubation time was required for growth of microbial colonies in the medicated samples.

[3] = tertiary aliphatic nitrogen; cited from earlier work
[4] = cited from earlier work
[5] = system: bacteria, moulds and yeasts; test: Stability study: microbiology of patches (Mikrocount duo dipslides); details: storage up to 6 months, ambient and accelerated
Method: Mikrocount® duo dipslides (Schulke & Mayr GmbH, Norderstedt, Germany) were used to determine total plate count and to detect presence of moulds and yeasts. The surface of each side of the dipslide was placed in contact with the hydrogel surface of the patch for 5 seconds. The dipslides were then placed in their sealed container and incubated for 72 hours at 27±1° C. Once incubated, the dipslides were compared to images within the Mikrocount® brochure to evaluate the colony forming units per cm^2.

[6] = Differential scanning calorimetry: drug crystallinity and saturation in PEO films; type: physicochemical; details: from plot of enthalpy of fusion against drug concentration, y = 0
Method: Differential scanning calorimetry (DSC) of NTX.base, NTX.HCl, PEO and loaded hydrogel films (irradiated and non-irradiated) may be performed with suitable DSC instruments, such as a DSC Q1000 (TA Instruments, New Castle, Del., USA). The DSC was conditioned for two hours prior to use. Samples (5-10 mg) were accurately weighed using a microbalance (Mettler-Toledo, Greifensee, Switzerland), placed in an aluminium hermetic sample pan and sealed with a hermetic lid (TA Instruments, New Castle, Del., USA). The samples were subjected to standard heat/cool/heat at a rate of 10° C./min, under a constant flow of nitrogen at a rate of 50 mL/min. Suitable settings include the following: • For NTX.base API and NTX.base loaded films, the heat/cool/heat cycle was from −80° C. to 200° C. to −80° C. to 200° C. • NTX.HCl API was heated from −80° C. to 285° C., then cooled to −80° C., and then heated for a second time to 285° C. […]
DSC analysis was performed, in accordance with the method described in the “Assays” part of the present disclosure. […] From the enthalpy of fusion values for NTX.HCl within the films, the saturation solubility of naltrexone hydrochloride within PEO was calculated by plotting enthalpy against drug concentration. […]

In the case of `O=C1CC[C@@]2(O)[C@H]3Cc4ccc(O)c5c4[C@@]2(CCN3CC2CC2)[C@H]1O5` [naltrexone base, 17-(Cyclopropylmethyl)-4,5α-epoxy-3,14-dihydroxymorphinan-6-one], the “degradation of naltrexone under storage (HPLC chromatograms)” value [1] is reported as “did not degrade under storage into any other compounds”, the yeasts or moulds ([2]; any incubation time point) is reported as “No yeasts or moulds were detected” and the bacterial colony count ([2]; solutions) is reported as ~10^3 CFU/mL. The microbial growth ([2]; solutions) was “approximately 10^3 CFU/mL”, the pKa [3] was 8.3 and the aqueous solubility [4] was 510 µg/mL (≈ 1490 µM).
In the case of `CC(O)CO` (centres unmarked) [propylene glycol], the “microbial growth on patches” value [5] is reported as “prevented bacteria, yeast and mould from growing at all throughout the study”.
For `O=C1CC[C@@]2(O)[C@H]3Cc4ccc(O)c5c4[C@@]2(CCN3CC2CC2)[C@H]1O5` [naltrexone hydrochloride], the “maximum drug loading before crystals are loaded to the film (saturation solubility within PEO)” value [6] was 4.40 % w/w, the bacterial colony count ([2]; solutions, hydrochloride) was “approximately 10^2 CFU/mL” and the bacterial growth ([2]; solutions, after 72 hours) was “Negligible bacterial growth”. The microbial growth ([2]; solutions, hydrochloride) was “approximately 10^2 CFU/mL”.
